Test results published in US9988361B2, “Anti-enterovirus 71 thiadiazolidine derivative” (JIANGSU KANION PHARMACEUTICAL CO. LTD, priority 2014, dated 2018).
pEC50: −log10 of the molar value.

Each molecule was assayed on EV71 virus strain Shenzhen/120F1/09 (assay: EV71 in-vitro cytopathic effect (CPE) test). Conditions: Enterovirus A, 72 h; RD cells, EV71 100 TCID50, 3 days, CCK8 readout; read-out: EC50 by EC71 CPE test, EV71.
Format: cell-based, RD cells of human rhabdomyoma
Protocol: Test of EV71 In-Vitro Cytopathic Effect (CPE) To test the in-vitro antiviral activity and cytotoxicity of a compound to HFMD virus EV71 by means of cytopathic effect (CPE) test. […] Cell line: RD cells of human rhabdomyoma • 3. Cell culture media: DMEM medium added with 10% serum, Penicillin/Streptomycin and L-[…]×) • 4. […] Cell inoculation: digest off the RD cells from the attached state, then dilute them with culture medium to a density of 80000/ml and inoculate 100 μl into the micro wells the 96-well plate. • 2. Dilution of compound: • Step 1: prepare the dry powder of a compound to test into a 10 mM solution in DMSO. Then dilute the compound by three times to eight concentration points. Dilute the reference compounds with the same method. • Step 2: further dilute the diluted solution of the compound in DMSO with cell culture medium. Add 10 μl DMSO solution for each well into 240 μl culture medium. • 3. Add the diluted compound solution by 50 μl each well into the 96-well plate inoculated with cells (double holes, final concentration of DMSO is 1%). • 4. Dilution of virus: dilute EV71 virus solution by 10000 times to a concentration of 100 TCID50/50 μl/. Add the diluted virus solution by 50 μl each well into the 96-well plate. Prepare another 96-well plate to replace the virus with culture medium and similarly inoculate the cells. Add the compound to test the toxicity of compound on cells. • 5. Cultivate the 96-well plate 3 days at the conditions of 37° C. and 5% CO2. • 6. EC50 and CC50 tests: add the cellular activity test reagent CCK8 into the micro-wells by 20 μl/well. Use ELIASA to read the absorbancy at the wavelength of 450 nm and 630 nm. • 7.

Molecule | pEC50
CCO/N=C/c1ccc(OCCCCCN2CCN(c3ccnc(N(C)C)c3)S2(=O)=O)cc1 [Embodiment 43, (E)-4-((5-(5-(2-(dimethylamino)-pyridin-4-yl)-1,1-dioxide-1,2,5-thiadiazolidine-2-yl)-pentyl)-oxy)-benzaldehyde-O-ethyl ketoxime] | 6.30 to 7.00
CCO/N=C/c1ccc(OCCCCCN2CCN(c3ccc(C#N)cc3)S2(=O)=O)cc1 [Embodiment 44] | 7.00 to 7.30
CCO/N=C1\CCc2cc(OCCCCCN3CCN(c4ccsc4)S3(=O)=O)ccc21 [Embodiment 46, (E)-2-(5-((1-(ethoxy-imino)-2,3-dihydro-1H-inden-5-yl)-oxy)-pentyl)-5-(thiophen-3-yl)-1,2,5-thiadiazolidine-1,1-dioxide] | 6.30 to 7.00
CCO/N=C1\CCc2cc(OCCCCCN3CCN(c4ccc(N)nc4)S3(=O)=O)ccc21 [Embodiment 47] | 6.00 to 6.30
CCO/N=C1\CCc2cc(OCCCCCN3CCN(c4ccnc(N)c4F)S3(=O)=O)ccc21 [Embodiment 48, (E)-2-(2-amino-3-fluoropyridin-4-yl)-5-(5-((1-(ethoxy-imino)-2,3-dihydro-1H-indene-5-yl)-oxy)-pentyl)-1,2,5-thiadiazolidine-1,1-dioxide] | 6.30 to 7.00
CCO/N=C1\CCc2cc(OCCCCCN3CCN(c4cc(N)ncc4F)S3(=O)=O)ccc21 [Embodiment 49, (E)-2-(2-amino-5-fluoro-pyridin-4-yl)-5-(5-((1-(ethoxy-imino)-2,3-dihydro-1H-indene-5-yl)-oxy)-pentyl)-1,2,5-thiadiazolidine-1,1-dioxide] | 6.30 to 7.00
CCO/N=C1\CCc2cc(OCCCCCN3CCN(c4ccnc(NC)c4)S3(=O)=O)ccc21 [Embodiment 50, (E)-2-(5-((1-(ethoxy-imino)-2,3-dihydro-1H-inden-5-yl)-oxy)-pentyl)-5-(2-(methylamino)-pyridin-4-yl)-1,2-thiadiazolidine-1,1-dioxide] | > 7.30
CCO/N=C1\CCc2cc(OCCCCCN3CCN(c4ccnc(NCCO)c4)S3(=O)=O)ccc21 [Embodiment 51, (E)-2-(5-((1-(ethoxy-imino)-2,3-dihydro-1H-inden-5-yl)-oxy)-pentyl)-5-(2-((2-hydroxyethyl)-amino)-pyridin-4-yl)-1,2,5-thiadiazolidine-1,1-dioxide] | > 7.30
Nc1cc(N2CCN(CCCCCOc3ccc(/C=N/OCC4CC4)cc3)S2(=O)=O)ccn1 [Embodiment 52] | > 7.30
CC(C)O/N=C/c1ccc(OCCCCCN2CCN(c3ccnc(N)c3)S2(=O)=O)cc1 [Embodiment 53, (E)-4-((5-(5-(2-amino-pyridin-4-yl)-1,1-dioxide-1,2,5-thiadiazolidine-2-yl)-pentyl)-oxy)-benzaldehyde-O-isopropyl oxime] | > 7.30
CCO/N=C(\CC)c1ccc(OCCCCCN2CCN(c3ccnc(N)c3)S2(=O)=O)cc1 [Embodiment 54, (E)-2-(2-amino-pyridin-4-yl)-5-(5-(4-(1-(ethoxyimino)-propyl)-phenoxy)-pentyl)-1,2,5-thiadiazolidine-1,1-dioxide] | 6.00 to 6.30
CCO/N=C/c1ccc(OCCOCCN2CCN(c3ccnc(N)c3)S2(=O)=O)cc1 [Embodiment 55] | 6.30 to 7.00
CCO/N=C/c1ccc(OCCCCCN2CCN(c3ccnc(N)c3)S2(=O)=O)cn1 [Embodiment 56, (E)-5-((5-(5-(2-amino-pyridin-4-yl)-1,1-dioxide-1,2,5-thiadiazolidine-2-yl)-pentyl)-oxy)-picolinaldehyde-O-ethyl ketoxime] | 7.00 to 7.30
CC(C)O/N=C1\CCc2cc(OCCCCCN3CCN(c4ccnc(N)c4)S3(=O)=O)ccc21 [Embodiment 58] | > 7.30
CCO/N=C1\CCc2cc(OCCCCCN3CCN(c4ccnc(N)c4)S3(=O)=O)cc(F)c21 [Embodiment 59] | > 7.30
CC(C)n1nnc(-c2ccc(OCCCCCN3CCN(c4ccnc(N)c4)S3(=O)=O)cc2)n1 [Embodiment 60] | > 7.30

Molecule | pEC50
Cn1nnc(-c2ccc(OCCCCCN3CCN(c4ccnc(N)c4)S3(=O)=O)cc2)n1 [Embodiment 61, 2-(2-amino-pyridin-4-yl)-5-(5-(4-(2-methyl-2H-tetrazol-5-yl)-phenoxy)-pentyl)-1,2,5-thiadiazolidine-1,1-dioxide] | > 7.30
CCc1noc2cc(OCCCCCN3CCN(c4ccnc(N)c4)S3(=O)=O)ccc12 [Embodiment 62, 2-(2-amino-pyridin-4-yl)-5-(5-((3-ethyl-benzo[d]isoxazol-6-yl)-oxy)-pentyl)-1,2,5-thiadiazolidine-1,1-dioxide] | 6.30 to 7.00
CCc1nnc(-c2ccc(OCCCCCN3CCN(c4ccnc(N)c4)S3(=O)=O)cc2)o1 [Embodiment 63, 4-(5-(5-(4-(5-ethyl-1,3,4-oxadiazol-2-yl)-phenoxy)-pentyl)-1,1-dioxo-1,2,5-thiadiazolidine-2-yl)-pyridin-2-amine] | 6.30 to 7.00
CCn1ncc(-c2ccc(OCCCCCN3CCN(c4ccnc(N)c4)S3(=O)=O)cc2)n1 [Embodiment 64, 2-(2-amino-pyridin-4-yl)-5-(5-(4-(2-ethyl-2H-1,2,3-triazol-4-yl)-phenoxy)-pentyl)-1,2,5-thiadiazolidine-1,1-dioxide] | > 7.30
CCO/N=C1\CCCc2cc(OCCCCCN3CCN(c4ccnc(N)c4)S3(=O)=O)ccc21 [Embodiment 65] | 6.30 to 7.00
CCCc1nc2ccc(OCCCCCN3CCN(c4ccnc(N)c4)S3(=O)=O)cc2o1 [Embodiment 66, 2-(2-amino-pyridin-4-yl)-5-(5-((2-propyl-benzo[d]oxazole-6-yl)-oxy)-pentyl)-1,2,5-thiadiazolidine-1,1-dioxide] | 7.00 to 7.30
CCc1cc(-c2ccc(OCCCCCN3CCN(c4ccnc(N)c4)S3(=O)=O)cc2)no1 [Embodiment 67, 2-(2-amino-pyridin-4-yl)-5-(5-(4-(5-ethylisoxazole-3-yl)-phenoxy)-pentyl)-1,2,5-thiadiazolidine-1,1-dioxide] | > 7.30
Nc1cc(N2CCN(CCCCCOc3ccc(-c4noc(C(F)(F)F)n4)cc3)S2(=O)=O)ccn1 [Embodiment 68, 2-(2-amino-pyridin-4-yl)-5-(5-(4-(5 (trifluoromethyl)-1,2,4-oxadiazol-3-yl)-phenoxy)-pentyl)-1,2,5-thiadiazolidine-1,1-dioxide] | 6.00 to 6.30
Cc1nc(-c2ccc(OCCCCCN3CCN(c4ccnc(N)c4)S3(=O)=O)cc2)no1 [Embodiment 69] | > 7.30
CCO/N=C1\CCc2cc(OCCCCCN3CCN(c4ccnnc4)S3(=O)=O)ccc21 [Embodiment 70] | 6.30 to 7.00
CCOc1noc2cc(OCCC(O)CCN3CCN(c4ccncc4)S3(=O)=O)ccc12 (centres unmarked) [Embodiment 71, 2-(5-((3-ethoxy-benzo[d]isoxazole-6-yl)-oxy)-3-hydroxy-pentyl)-5-(pyridin-4-yl)-1,2,5-thiadiazolidine-1,1-dioxide] | 6.30 to 7.00
CCOc1noc2cc(OCCC(F)CCN3CCN(c4ccncc4)S3(=O)=O)ccc12 (centres unmarked) [Embodiment 72, 2-(5-((3-ethoxy-benzo[d]isoxazole-6-yl)-oxy)-3-fluoro-pentyl)-5-(pyridin-4-yl)-1,2,5-thiadiazolidine-1,1-dioxide] | 7.00 to 7.30
CCn1nnc(-c2ccc(OCCC3(CCN4CCN(c5ccnc(N)c5)S4(=O)=O)CC3)cc2)n1 [Embodiment 73, 2-(2-amino-pyridin-4-yl)-5-(2-(1-(2-(4-(2-ethyl-2H-tetrazol-5-yl)-phenoxy)-ethyl)-cyclic propyl)-ethyl)-1,2,5-thiadiazolidine-1,1-dioxide] | > 7.30
CCn1nnc(-c2ccc(OCCCCCN3CCN(c4ccnc(N)c4)S3(=O)=O)nc2)n1 [Embodiment 74, 4-(5-(5-((5-(2-ethyl-tetrazol-5-yl)-2-pyridinyl)-oxy)-pentyl)-1,1-dioxo-1,2,5-thiadiazolidine-2-yl)-pyridin-2-amine] | > 7.30
CCn1nnc(-c2ccc(OCCC(C)(C)CCN3CCN(c4ccnc(N)c4)S3(=O)=O)cc2)n1 [Embodiment 76, 4-(5-(5-(4-(2-ethyl-tetrazol-5-yl)-phenoxy)-3,3-dimethyl-pentyl)-1,1-dioxo-1,2,5-thiadiazolidine-2-yl)-pyridin-2-amine] | > 7.30

Same assay, conditions: RD cells, EV71 100 TCID50, 3 days, CCK8 readout; read-out: EC50 by EC71 CPE test, EV71

Molecule | pEC50
(S,E)-2-(2-aminopyridin-4-yl)-5-(5-((1-(ethoxy-imino)-2,3-dihydro-1H-inden-5-yl)-oxy)-3-methylpentyl)-1,2,5-thiadiazolidine-1,1-dioxide and (R,E)-2-(2-aminopyridin-4-yl)-5-(5-((1-(ethoxy-imino)-2,3-dihydro-1H-inden-5-yl)-oxy)-3-methylpentyl)-1,2,5-thiadiazolidine-1,1-dioxide [Embodiment 29] | > 7.30
